Experimental data as given in the NIST ThermoML archive (doi:10.1016/j.jct.2013.12.025).
± gives the expanded uncertainty stated by the source.

Assay: xn = mol fraction of the nth substance listed
Conditions: 101 kPa, Liquid, Vibrating tube method

C=C[Si](C)(C)O[Si](C)(C)C=C [1,3-diethenyl-1,1,3,3-tetramethyldisiloxane] + O=[N+]([O-])c1ccccc1
mass density (283.15 K, x1 = 0.05): 1176.35 ± 1 kg/m3 | mass density (283.15 K, x1 = 0.1): 1142.71 ± 1 kg/m3 | mass density (283.15 K, x1 = 0.15): 1111.83 ± 1 kg/m3 | mass density (283.15 K, x1 = 0.2): 1083.35 ± 1 kg/m3 | mass density (283.15 K, x1 = 0.25): 1057.23 ± 1 kg/m3 | mass density (283.15 K, x1 = 0.3): 1033.06 ± 1 kg/m3 | mass density (283.15 K, x1 = 0.3508): 1010.38 ± 1 kg/m3 | mass density (283.15 K, x1 = 0.4001): 989.98 ± 1 kg/m3 | mass density (283.15 K, x1 = 0.4501): 970.75 ± 1 kg/m3 | mass density (283.15 K, x1 = 0.4999): 952.93 ± 1 kg/m3 | mass density (283.15 K, x1 = 0.55): 936.17 ± 1 kg/m3 | mass density (283.15 K, x1 = 0.6001): 920.46 ± 1 kg/m3 | mass density (283.15 K, x1 = 0.6487): 906.15 ± 1 kg/m3 | mass density (283.15 K, x1 = 0.6999): 891.87 ± 1 kg/m3 | mass density (283.15 K, x1 = 0.7499): 878.8 ± 1 kg/m3 | mass density (283.15 K, x1 = 0.7999): 866.41 ± 1 kg/m3 | mass density (283.15 K, x1 = 0.8497): 854.66 ± 1 kg/m3 | mass density (283.15 K, x1 = 0.9): 843.43 ± 1 kg/m3 | mass density (283.15 K, x1 = 0.9499): 832.79 ± 1 kg/m3 | mass density (283.15 K, x1 = 1): 822.64 ± 1 kg/m3 | mass density (288.15 K, x1 = 0.05): 1171.43 ± 1 kg/m3 | mass density (288.15 K, x1 = 0.1): 1137.83 ± 1 kg/m3 | mass density (288.15 K, x1 = 0.15): 1106.98 ± 1 kg/m3 | mass density (288.15 K, x1 = 0.2): 1078.52 ± 1 kg/m3 | mass density (288.15 K, x1 = 0.25): 1052.41 ± 1 kg/m3 | mass density (288.15 K, x1 = 0.3): 1028.23 ± 1 kg/m3 | mass density (288.15 K, x1 = 0.3508): 1005.54 ± 1 kg/m3 | mass density (288.15 K, x1 = 0.4001): 985.14 ± 1 kg/m3 | mass density (288.15 K, x1 = 0.4501): 965.91 ± 1 kg/m3 | mass density (288.15 K, x1 = 0.4999): 948.07 ± 1 kg/m3 | mass density (288.15 K, x1 = 0.55): 931.3 ± 1 kg/m3 | mass density (288.15 K, x1 = 0.6001): 915.57 ± 1 kg/m3 | mass density (288.15 K, x1 = 0.6487): 901.26 ± 1 kg/m3 | mass density (288.15 K, x1 = 0.6999): 887 ± 1 kg/m3 | mass density (288.15 K, x1 = 0.7499): 873.92 ± 1 kg/m3 | mass density (288.15 K, x1 = 0.7999): 861.51 ± 1 kg/m3 | mass density (288.15 K, x1 = 0.8497): 849.77 ± 1 kg/m3 | mass density (288.15 K, x1 = 0.9): 838.53 ± 1 kg/m3 | mass density (288.15 K, x1 = 0.9499): 827.88 ± 1 kg/m3 | mass density (288.15 K, x1 = 1): 817.73 ± 1 kg/m3 | mass density (293.15 K, x1 = 0.05): 1166.52 ± 1 kg/m3 | mass density (293.15 K, x1 = 0.1): 1132.97 ± 1 kg/m3 | mass density (293.15 K, x1 = 0.15): 1102.13 ± 1 kg/m3 | mass density (293.15 K, x1 = 0.2): 1073.67 ± 1 kg/m3 | mass density (293.15 K, x1 = 0.25): 1047.57 ± 1 kg/m3 | mass density (293.15 K, x1 = 0.3): 1023.4 ± 1 kg/m3 | mass density (293.15 K, x1 = 0.3508): 1000.74 ± 1 kg/m3 | mass density (293.15 K, x1 = 0.4001): 980.32 ± 1 kg/m3 | mass density (293.15 K, x1 = 0.4501): 961.08 ± 1 kg/m3 | mass density (293.15 K, x1 = 0.4999): 943.22 ± 1 kg/m3 | mass density (293.15 K, x1 = 0.55): 926.44 ± 1 kg/m3 | mass density (293.15 K, x1 = 0.6001): 910.7 ± 1 kg/m3 | mass density (293.15 K, x1 = 0.6487): 896.39 ± 1 kg/m3 | mass density (293.15 K, x1 = 0.6999): 882.12 ± 1 kg/m3 | mass density (293.15 K, x1 = 0.7499): 869.03 ± 1 kg/m3 | mass density (293.15 K, x1 = 0.7999): 856.6 ± 1 kg/m3 | mass density (293.15 K, x1 = 0.8497): 844.87 ± 1 kg/m3 | mass density (293.15 K, x1 = 0.9): 833.62 ± 1 kg/m3 | mass density (293.15 K, x1 = 0.9499): 822.98 ± 1 kg/m3 | mass density (293.15 K, x1 = 1): 812.82 ± 1 kg/m3 | mass density (298.15 K, x1 = 0.05): 1161.69 ± 1 kg/m3 | mass density (298.15 K, x1 = 0.1): 1128.22 ± 1 kg/m3 | mass density (298.15 K, x1 = 0.15): 1097.43 ± 1 kg/m3 | mass density (298.15 K, x1 = 0.2): 1068.96 ± 1 kg/m3 | mass density (298.15 K, x1 = 0.25): 1042.87 ± 1 kg/m3 | mass density (298.15 K, x1 = 0.3): 1018.69 ± 1 kg/m3 | mass density (298.15 K, x1 = 0.3508): 996.01 ± 1 kg/m3 | mass density (298.15 K, x1 = 0.4001): 975.57 ± 1 kg/m3 | mass density (298.15 K, x1 = 0.4501): 956.32 ± 1 kg/m3 | mass density (298.15 K, x1 = 0.4999): 938.45 ± 1 kg/m3 | mass density (298.15 K, x1 = 0.55): 921.66 ± 1 kg/m3 | mass density (298.15 K, x1 = 0.6001): 905.91 ± 1 kg/m3 | mass density (298.15 K, x1 = 0.6487): 891.58 ± 1 kg/m3 | mass density (298.15 K, x1 = 0.6999): 877.3 ± 1 kg/m3 | mass density (298.15 K, x1 = 0.7499): 864.21 ± 1 kg/m3 | mass density (298.15 K, x1 = 0.7999): 851.77 ± 1 kg/m3 | mass density (298.15 K, x1 = 0.8497): 840.06 ± 1 kg/m3 | mass density (298.15 K, x1 = 0.9): 828.8 ± 1 kg/m3 | mass density (298.15 K, x1 = 0.9499): 818.14 ± 1 kg/m3 | mass density (298.15 K, x1 = 1): 807.98 ± 1 kg/m3 | mass density (303.15 K, x1 = 0.05): 1156.82 ± 1 kg/m3 | mass density (303.15 K, x1 = 0.1): 1123.45 ± 1 kg/m3 | mass density (303.15 K, x1 = 0.15): 1092.67 ± 1 kg/m3 | mass density (303.15 K, x1 = 0.2): 1064.2 ± 1 kg/m3 | mass density (303.15 K, x1 = 0.25): 1038.12 ± 1 kg/m3 | mass density (303.15 K, x1 = 0.3): 1013.92 ± 1 kg/m3 | mass density (303.15 K, x1 = 0.3508): 991.23 ± 1 kg/m3 | mass density (303.15 K, x1 = 0.4001): 970.77 ± 1 kg/m3 | mass density (303.15 K, x1 = 0.4501): 951.52 ± 1 kg/m3 | mass density (303.15 K, x1 = 0.4999): 933.61 ± 1 kg/m3 | mass density (303.15 K, x1 = 0.55): 916.81 ± 1 kg/m3 | mass density (303.15 K, x1 = 0.6001): 901.03 ± 1 kg/m3 | mass density (303.15 K, x1 = 0.6487): 886.71 ± 1 kg/m3 | mass density (303.15 K, x1 = 0.6999): 872.42 ± 1 kg/m3 | mass density (303.15 K, x1 = 0.7499): 859.31 ± 1 kg/m3 | mass density (303.15 K, x1 = 0.7999): 846.84 ± 1 kg/m3 | mass density (303.15 K, x1 = 0.8497): 835.12 ± 1 kg/m3 | mass density (303.15 K, x1 = 0.9): 823.86 ± 1 kg/m3 | mass density (303.15 K, x1 = 0.9499): 813.2 ± 1 kg/m3 | mass density (303.15 K, x1 = 1): 803.03 ± 1 kg/m3
